Measurements reported in US6573218B1, “Fused-benzene derivatives useful as herbicides” (Ishihara Sangyo Kaisha, Ltd., priority 1998, dated 2003).

Legend:
Type in all cases: in vivo
[1] = test system: johnsongrass (Sorghum halepense, SORHA); assay: Pre-emerge greenhouse herbicide test; details: 250 g ai/ha, 14 days after application, scale 0-100 (0 no damage, 100 complete death)
Description: (§1) A standard greenhouse herbicide activity screening system was used to evaluate the herbicidal efficacy and crop safety of these test compounds. Seven broadleaf weed species including redroot pigweed (Amaranthus retroflexus, AMARE), velvetleaf (Abutilon theophrasti, ABUTH), sicklepod (Cassia obtusifolia, CASOB), ivyleaf morningglory (Ipomoea hederacea, IPOHE), lambsquarters (Chenopodium album, CHEAL), common ragweed (Ambrosia artemisiifolia L., AMBEL), and cocklebur (Xanthium strumarium, XANST) were used as test species. Four grass weed species including green foxtail (Setaria viridis, SETVI), barnyardgrass (Echinochloa crus-galli, ECHCG), johnsongrass (Sorghum halepense, SORHA), and large crabgrass (Digitaria sanguinalis, DIGSA) were also used. In addition, three crop species, field corn (Zea mays L., var. Dekalb 527, CORN), soybean (Glycine max L., var. Pella 86, SOY), and upland rice (Ory0a sp., var.Tebonnet, RICE) were included.
(§2) All plants were grown in 10 cm square plastic pots which were filled with a sandy loam soil mix. For pre-emerge tests, seeds were planted one day prior to application of the test compounds. For post-emerge tests, seeds were planted 8-21 days prior to the test to allow emergence and good foliage development prior to application of the test substances. At the time of the post-emerge application, plants of all species were usually at the 2-3 leaf stage of development.
(§3) All test compounds were dissolved in acetone and applied to the test units in a volume of 187 l/ha. Test materials were applied at rates ranging from 15 g ai/ha to 1000 g ai/ha using a track sprayer equipped with a TJ8001E even flow flat fan spray nozzle. Plants were arranged on a shelf so that the top of the canopy (post-emerge) or top of the soil surface (pre-emerge) was 40-45 cm below the nozzle. Pressurized air was used to force the test solution through the nozzle as it was mechanically advanced over the top of all test plants/pots. This application simulates a typical commercial field herbicide application.
(§4) In the post-emerge test, a commercial non-ionic surfactant was also included (0.25% v/v) to enhance wetting of the leaf surfaces of target plants. Immediately after application, test units of the pre-emerge applications were watered at the soil surface to incorporate the test materials.
(§5) At 14 days after application of the test materials, phytotoxicity ratings were recorded. A rating scale of 0-100 was used as previously described in Research Methods in Weed Science, 2nd edition, B. Truelove, Ed., Southern Weed Science Society, Auburn University, Auburn, Ala., 1977. Briefly, “0” corresponds to no damage and “100” corresponds to complete death of all plants in the test unit. This scale was used both to determine efficacy against weed species and damage to crop species. Herbicide activity data for various compounds of this invention, which are shown by compound No. in Tables 1-14, are shown in Tables 16 and 17.

[2] = test system: green foxtail (Setaria viridis, SETVI); assay: Pre-emerge greenhouse herbicide test; details: 250 g ai/ha, 14 days after application, scale 0-100 (0 no damage, 100 complete death)
Description: as §1, §2, §3, §4, §5

[3] = test system: barnyardgrass (Echinochloa crus-galli, ECHCG); assay: Pre-emerge greenhouse herbicide test; details: 250 g ai/ha, 14 days after application, scale 0-100 (0 no damage, 100 complete death)
Description: as §1, §2, §3, §4, §5

[4] = test system: sicklepod (Cassia obtusifolia, CASOB); assay: Pre-emerge greenhouse herbicide test; details: 250 g ai/ha, 14 days after application, scale 0-100 (0 no damage, 100 complete death)
Description: as §1, §2, §3, §4, §5

[5] = test system: ivyleaf morningglory (Ipomoea hederacea, IPOHE); assay: Pre-emerge greenhouse herbicide test; details: 250 g ai/ha, 14 days after application, scale 0-100 (0 no damage, 100 complete death)
Description: as §1, §2, §3, §4, §5

[6] = test system: large crabgrass (Digitaria sanguinalis, DIGSA); assay: Pre-emerge greenhouse herbicide test; details: 250 g ai/ha, 14 days after application, scale 0-100 (0 no damage, 100 complete death)
Description: as §1, §2, §3, §4, §5

[7] = test system: redroot pigweed (Amaranthus retroflexus, AMARE); assay: Pre-emerge greenhouse herbicide test; details: 250 g ai/ha, 14 days after application, scale 0-100 (0 no damage, 100 complete death)
Description: as §1, §2, §3, §4, §5

[8] = test system: velvetleaf (Abutilon theophrasti, ABUTH); assay: Pre-emerge greenhouse herbicide test; details: 250 g ai/ha, 14 days after application, scale 0-100 (0 no damage, 100 complete death)
Description: as §1, §2, §3, §4, §5

[9] = test system: lambsquarters (Chenopodium album, CHEAL); assay: Pre-emerge greenhouse herbicide test; details: 250 g ai/ha, 14 days after application, scale 0-100 (0 no damage, 100 complete death)
Description: as §1, §2, §3, §4, §5

[10] = test system: upland rice (Ory0a sp., var.Tebonnet, RICE); assay: Pre-emerge greenhouse crop damage test; details: in vivo
Description: as §1, §2, §3, §4, §5

[11] = test system: soybean (Glycine max L., var. Pella 86, SOY); assay: Pre-emerge greenhouse crop damage test
Description: as §1, §2, §3, §4, §5

[12] = test system: field corn (Zea mays L., var. Dekalb 527, CORN); assay: Pre-emerge greenhouse crop damage test
Description: as §1, §2, §3, §4, §5

[13] = test system: upland rice (Ory0a sp., var.Tebonnet, RICE); assay: Post-emerge greenhouse crop damage test
Description: as §1, §2, §3, §4, §5

[14] = test system: soybean (Glycine max L., var. Pella 86, SOY); assay: Post-emerge greenhouse crop damage test
Description: as §1, §2, §3, §4, §5

[15] = test system: field corn (Zea mays L., var. Dekalb 527, CORN); assay: Post-emerge greenhouse crop damage test
Description: as §1, §2, §3, §4, §5

[16] = test system: johnsongrass (Sorghum halepense, SORHA); assay: Post-emerge greenhouse herbicide test; details: 250 g ai/ha, 14 days after application
Description: as §1, §2, §3, §4, §5

[17] = test system: green foxtail (Setaria viridis, SETVI); assay: Post-emerge greenhouse herbicide test; details: 250 g ai/ha, 14 days after application
Description: as §1, §2, §3, §4, §5

[18] = test system: barnyardgrass (Echinochloa crus-galli, ECHCG); assay: Post-emerge greenhouse herbicide test; details: 250 g ai/ha, 14 days after application
Description: as §1, §2, §3, §4, §5

[19] = test system: sicklepod (Cassia obtusifolia, CASOB); assay: Post-emerge greenhouse herbicide test; details: 250 g ai/ha, 14 days after application
Description: as §1, §2, §3, §4, §5

[20] = test system: ivyleaf morningglory (Ipomoea hederacea, IPOHE); assay: Post-emerge greenhouse herbicide test; details: 250 g ai/ha, 14 days after application
Description: as §1, §2, §3, §4, §5

[21] = test system: large crabgrass (Digitaria sanguinalis, DIGSA); assay: Post-emerge greenhouse herbicide test; details: 250 g ai/ha, 14 days after application
Description: as §1, §2, §3, §4, §5

[22] = test system: redroot pigweed (Amaranthus retroflexus, AMARE); assay: Post-emerge greenhouse herbicide test; details: 250 g ai/ha, 14 days after application
Description: as §1, §2, §3, §4, §5

[23] = test system: velvetleaf (Abutilon theophrasti, ABUTH); assay: Post-emerge greenhouse herbicide test; details: 250 g ai/ha, 14 days after application
Description: as §1, §2, §3, §4, §5

[24] = test system: lambsquarters (Chenopodium album, CHEAL); assay: Post-emerge greenhouse herbicide test; details: 250 g ai/ha, 14 days after application
Description: as §1, §2, §3, §4, §5

[25] = pre-emerge, 250 g ai/ha, 14 days after application, scale 0-100 (0 no damage, 100 complete death)
[26] = 250 g ai/ha, post-emerge, 14 days after application
[27] = var. Pella 86, soybean (Glycine max L.), in vivo, 14 days
[28] = var. Dekalb 527, field corn (Zea mays L.), in vivo, 14 days

Structure (SMILES)	Pre-emerge Herbicidal Activity SORHA (phytotoxicity rating) [1]	Pre-emerge Herbicidal Activity SETVI (phytotoxicity rating) [2]	Pre-emerge Herbicidal Activity ECHCG (phytotoxicity rating) [3]	Pre-emerge Herbicidal Activity CASOB (phytotoxicity rating) [4]	Pre-emerge Herbicidal Activity IPOHE (phytotoxicity rating) [5]	Pre-emerge Herbicidal Activity DIGSA (phytotoxicity rating) [6]	Pre-emerge Herbicidal Activity AMARE (phytotoxicity rating) [7]	Pre-emerge Herbicidal Activity ABUTH (phytotoxicity rating) [8]	Pre-emerge Herbicidal Activity CHEAL (phytotoxicity rating) [9]	Post-emerge Herbicidal Activity SORHA (phytotoxicity rating 0-100) [16]	Post-emerge Herbicidal Activity SETVI (phytotoxicity rating 0-100) [17]	Post-emerge Herbicidal Activity ECHCG (phytotoxicity rating 0-100) [18]	Post-emerge Herbicidal Activity CASOB (phytotoxicity rating 0-100) [19]	Post-emerge Herbicidal Activity IPOHE (phytotoxicity rating 0-100) [20]	Post-emerge Herbicidal Activity DIGSA (phytotoxicity rating 0-100) [21]	Post-emerge Herbicidal Activity AMARE (phytotoxicity rating 0-100) [22]	Post-emerge Herbicidal Activity ABUTH (phytotoxicity rating 0-100) [23]	Post-emerge Herbicidal Activity CHEAL (phytotoxicity rating 0-100) [24]	other results
Cn1c(C(F)(F)F)cc(=O)n(-c2c(F)cc(Cl)c3c2NC(=O)CO3)c1=O [Compound 4-1]	95	100	70	100	100	100	100	100	100	40	10	30	80	100	30	100	100	100	Pre-emerge Herbicidal Activity RICE (crop damage rating) [10]: 90; Pre-emerge Herbicidal Activity SOY (crop damage rating) [11, 25]: 100; Pre-emerge Herbicidal Activity CORN (crop damage rating) [12, 25]: 90; Post-emerge crop damage RICE (phytotoxicity rating 0-100) [13, 26]: 65; Post-emerge crop damage SOY (phytotoxicity rating 0-100) [14, 26]: 100; Post-emerge crop damage CORN (phytotoxicity rating 0-100) [15, 26]: 70
CCc1nc2c(-n3c(=O)n4n(c3=S)CCC=C4)c(F)cc(Cl)c2o1 [Compound 8-1, 8-(7-Chloro-2-ethyl-5-fluorobenzoxazol-4-yl)-1,6,8-triazabicyclo[4,3,0]2-nonene-9-one-7-thione]	100	100	90	90	60	100	100	100	100	99	100	90	100	100	70	100	100	99	Pre-emerge Herbicidal Activity RICE (crop damage rating) ([10]; var. Tebonnet, upland rice (Ory0a sp.), 14 days): 20; Pre-emerge Herbicidal Activity SOY (crop damage rating) [11, 27]: 60; Pre-emerge Herbicidal Activity CORN (crop damage rating) [12, 28]: 50; Post-emerge crop damage RICE (phytotoxicity rating 0-100) ([13]; var. Tebonnet, upland rice (Ory0a sp.), in vivo, 14 days): 80; Post-emerge crop damage SOY (phytotoxicity rating 0-100) [14, 27]: 100; Post-emerge crop damage CORN (phytotoxicity rating 0-100) [15, 28]: 80
